In the Kinase Knowledgebase extract (Sharma et al. 2016):

target: CDK2 (human) (UniProt P24941); assay: Enzyme Assay; conditions: concentration not given here

inhibition [%] | SMILES
53 | CCCCCCCC(=O)N1CCC(Nc2nc(N)c(C(=O)c3c(F)cccc3F)s2)CC1
81 | Nc1nc(NC2CCN(C(=O)C3CCOC3)CC2)sc1C(=O)c1c(F)cccc1F (centres undefined)
54 | Cc1ccc2[nH]c(C(=O)N3CCC(Nc4nc(N)c(C(=O)c5c(F)cccc5F)s4)CC3)cc2c1
18 | COc1ccc(Cl)cc1C(=O)N1CCC(Nc2nc(N)c(C(=O)c3c(F)cccc3F)s2)CC1
15 | C=CCC(=O)N1CCC(Nc2nc(N)c(C(=O)c3c(F)cccc3F)s2)CC1
62 | C/C=C/CC(=O)N1CCC(Nc2nc(N)c(C(=O)c3c(F)cccc3F)s2)CC1
46 | CC(=O)SC[C@@H](C)C(=O)N1CCC(Nc2nc(N)c(C(=O)c3c(F)cccc3F)s2)CC1
80 | Cc1cc(F)ccc1OCC(=O)N1CCC(Nc2nc(N)c(C(=O)c3c(F)cccc3F)s2)CC1
17 | Nc1nc(NC2CCN(C(=O)Cc3ccncc3)CC2)sc1C(=O)c1c(F)cccc1F
39 | C=CCCCC(=O)N1CCC(Nc2nc(N)c(C(=O)c3c(F)cccc3F)s2)CC1
-7 | Cc1c(S(=O)(=O)c2ccc(Cl)cc2)csc1C(=O)N1CCC(Nc2nc(N)c(C(=O)c3c(F)cccc3F)s2)CC1
55 | Nc1nc(NC2CCN(C(=O)c3cccc4ccccc34)CC2)sc1C(=O)c1c(F)cccc1F
16 | Cc1nn(C)c2ncc(C(=O)N3CCC(Nc4nc(N)c(C(=O)c5c(F)cccc5F)s4)CC3)c(Cl)c12
50 | CC(SCc1ccccc1)C(=O)N1CCC(Nc2nc(N)c(C(=O)c3c(F)cccc3F)s2)CC1 (centres undefined)
79 | CCCCOCC(=O)N1CCC(Nc2nc(N)c(C(=O)c3c(F)cccc3F)s2)CC1
59 | Nc1nc(NC2CCN(C(=O)Cc3ccc(O)c(F)c3)CC2)sc1C(=O)c1c(F)cccc1F
75 | Nc1nc(NC2CCN(C(=O)C(O)c3ccccc3)CC2)sc1C(=O)c1c(F)cccc1F (centres undefined)
6 | CCCN(CCC)[C@@H](C)C(=O)N1CCC(Nc2nc(N)c(C(=O)c3c(F)cccc3F)s2)CC1
-43 | CN(C)C(=O)N1CCC(Nc2nc(N)c(C(=O)c3c(F)cccc3F)s2)CC1
44 | Nc1nc(NC2CCN(C(=O)Cc3cccc(O)c3)CC2)sc1C(=O)c1c(F)cccc1F
49 | Nc1nc(NC2CCN(C(=O)c3ccco3)CC2)sc1C(=O)c1c(F)cccc1F

Continued, molecule first:

SMILES | inhibition [%]
Nc1nc(NC2CCN(C(=O)c3ccccc3C(F)(F)F)CC2)sc1C(=O)c1c(F)cccc1F | -12
Nc1nc(NC2CCN(C(=O)c3cccs3)CC2)sc1C(=O)c1c(F)cccc1F | 80
CCCCCC(=O)N1CCC(Nc2nc(N)c(C(=O)c3c(F)cccc3F)s2)CC1 | 36
Nc1nc(NC2CCN(C(=O)C(O)c3cc(F)ccc3F)CC2)sc1C(=O)c1c(F)cccc1F (centres undefined) | 57
CSCCC(O)C(=O)N1CCC(Nc2nc(N)c(C(=O)c3c(F)cccc3F)s2)CC1 (centres undefined) | 65
CC(=O)Nc1cc(C(=O)N2CCC(Nc3nc(N)c(C(=O)c4c(F)cccc4F)s3)CC2)ccc1C | 64
Nc1nc(NC2CCN(C(=O)Cc3ccccc3)CC2)sc1C(=O)c1c(F)cccc1F | 66
CN(C)c1ccc(N=Nc2ccc(S(=O)(=O)N3CCC(Nc4nc(N)c(C(=O)c5c(F)cccc5F)s4)CC3)cc2)cc1 | -20
Nc1nc(NC2CCN(C(=O)C(O)c3c(F)cccc3F)CC2)sc1C(=O)c1c(F)cccc1F (centres undefined) | 54
Nc1nc(NC2CCN(C(=O)c3csnn3)CC2)sc1C(=O)c1c(F)cccc1F | 68
CC(=O)Oc1cccc(C(=O)N2CCC(Nc3nc(N)c(C(=O)c4c(F)cccc4F)s3)CC2)c1 | 56
CC1CCCCC1C(=O)N1CCC(Nc2nc(N)c(C(=O)c3c(F)cccc3F)s2)CC1 (centres undefined) | 43
Nc1nc(NC2CCN(C(=O)OCC3c4ccccc4-c4ccccc43)CC2)sc1C(=O)c1c(F)cccc1F | -12
COC(C(=O)N1CCC(Nc2nc(N)c(C(=O)c3c(F)cccc3F)s2)CC1)c1ccccc1 (centres undefined) | 28
Nc1nc(NC2CCN(C(=O)C(O)Cc3ccc(O)cc3)CC2)sc1C(=O)c1c(F)cccc1F (centres undefined) | 34
Nc1nc(NC2CCN(C(=O)/C=C/c3cc(O)ccc3O)CC2)sc1C(=O)c1c(F)cccc1F | 80
Cc1ccc(C(=O)N2CCC(Nc3nc(N)c(C(=O)c4c(F)cccc4F)s3)CC2)cc1 | 60
COCCC(=O)N1CCC(Nc2nc(N)c(C(=O)c3c(F)cccc3F)s2)CC1 | 33
Cc1ccc(C(=O)N2CCC(Nc3nc(N)c(C(=O)c4c(F)cccc4F)s3)CC2)cn1 | 20
Nc1nc(NC2CCN(C(=O)c3ccc(-n4cccc4)cc3)CC2)sc1C(=O)c1c(F)cccc1F | 69
CC(=O)O[C@@H](C(=O)N1CCC(Nc2nc(N)c(C(=O)c3c(F)cccc3F)s2)CC1)c1ccccc1 | 25
Nc1nc(NC2CCN(C(=O)c3ccc[n+]([O-])c3)CC2)sc1C(=O)c1c(F)cccc1F | 46

SMILES | inhibition [%]
CCC(=O)C(=O)N1CCC(Nc2nc(N)c(C(=O)c3c(F)cccc3F)s2)CC1 | 15
Cc1ccc(CCC(=O)N2CCC(Nc3nc(N)c(C(=O)c4c(F)cccc4F)s3)CC2)cc1 | 36
Nc1nc(NC2CCN(S(=O)(=O)c3c(Cl)cc(C(F)(F)F)cc3Cl)CC2)sc1C(=O)c1c(F)cccc1F | -23
Nc1nc(NC2CCN(C(=O)/C=C/c3ccc(F)cc3F)CC2)sc1C(=O)c1c(F)cccc1F | 28
CSc1ccccc1C(=O)N1CCC(Nc2nc(N)c(C(=O)c3c(F)cccc3F)s2)CC1 | 40
CC(=O)Oc1c(C)cccc1C(=O)N1CCC(Nc2nc(N)c(C(=O)c3c(F)cccc3F)s2)CC1 | 50
CSCC(=O)N1CCC(Nc2nc(N)c(C(=O)c3c(F)cccc3F)s2)CC1 | 84
C[C@](O)(C(=O)N1CCC(Nc2nc(N)c(C(=O)c3c(F)cccc3F)s2)CC1)c1ccccc1 | 77
Nc1nc(NC2CCN(C(=O)CS/C=C\c3ccccc3)CC2)sc1C(=O)c1c(F)cccc1F | 59
CCN(CC)CCC(=O)N1CCC(Nc2nc(N)c(C(=O)c3c(F)cccc3F)s2)CC1 | 57
Cc1cccc(OCC(=O)N2CCC(Nc3nc(N)c(C(=O)c4c(F)cccc4F)s3)CC2)c1C | 40
N#C/C(=C\c1cccc(O)c1)C(=O)N1CCC(Nc2nc(N)c(C(=O)c3c(F)cccc3F)s2)CC1 | 84
Nc1nc(NC2CCN(C(=O)c3ccc4c(c3)C(=O)OC4=O)CC2)sc1C(=O)c1c(F)cccc1F | 53
CCCOc1ccc(C(=O)N2CCC(Nc3nc(N)c(C(=O)c4c(F)cccc4F)s3)CC2)cc1 | 77
CCOc1ccc(/C=C/C(=O)N2CCC(Nc3nc(N)c(C(=O)c4c(F)cccc4F)s3)CC2)cc1 | 34
Cc1ccc(C(C)C)c(C(=O)N2CCC(Nc3nc(N)c(C(=O)c4c(F)cccc4F)s3)CC2)c1O | 30
Nc1nc(NC2CCN(C(=O)/C=C/c3ccc4c(c3)CCC4)CC2)sc1C(=O)c1c(F)cccc1F | 48
COc1ncccc1C(=O)N1CCC(Nc2nc(N)c(C(=O)c3c(F)cccc3F)s2)CC1 | 40
Cc1cccc(CC(=O)N2CCC(Nc3nc(N)c(C(=O)c4c(F)cccc4F)s3)CC2)c1 | 55
Nc1nc(NC2CCN(C(=O)CSc3ccncc3)CC2)sc1C(=O)c1c(F)cccc1F | 23
Cc1cc(C(=O)N2CCC(Nc3nc(N)c(C(=O)c4c(F)cccc4F)s3)CC2)n(C(C)(C)C)n1 | 59
